The source of these data is PubChem BioAssay (NCI).

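Briefly, cells in 96-well plates were exposed to five compound concentrations for 48 h, and endpoints were estimated by linear interpolation. At the GI50, growth is halved. At the TGI there is no net growth.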

Test systems include NCI-H226 lung; BT-549 breast; HOP-62 NSCLC; LOX IMVI melanoma; SK-OV-3 ovarian; COLO 205 colon; HOP-92 NSCLC; HCT-15 colon; SF-268 CNS; CAKI-1 renal.
What all share (test): inhibition of tumour cell growth, NCI panel, 48 h

Take `CC[C@H](C)[C@H](NC(=O)c1ncccn1)C(=O)N(C)[C@H](C[C@@H](OC(C)=O)c1nc(C(=O)N[C@@H](Cc2ccccc2)C[C@H](C)C(=O)OC)cs1)C(C)C`: the GI50 in the test with NCI-H226 lung is 5.45 µM; in the test with BT-549 breast it was 1.47 µM; with HOP-62 NSCLC, 1.73 µM; in the test with LOX IMVI melanoma it was 1.46 µM; with SK-OV-3 ovarian, 5.51 µM; with COLO 205 colon it was 1.01 µM. The GI50 in the test on HOP-92 NSCLC was 4.36 µM; in the test with HCT-15 colon, 1.39 µM; in the test on SF-268 CNS, 2.21 µM. Also, the TGI in the test on NCI-H226 lung was > 25 µM; in the test with BT-549 breast, 11.7 µM; in the test with HOP-62 NSCLC, > 25 µM; with LOX IMVI melanoma, > 25 µM; with SK-OV-3 ovarian, > 25 µM; in the test on COLO 205 colon, 4.97 µM. In addition, the TGI in the test on HOP-92 NSCLC, in the test with HCT-15 colon and with SF-268 CNS was > 25 µM in each case.

On to `Cc1cc(C)c([I+]c2c(C)cc(C)cc2C)c(C)c1`, for which the GI50 was 0.505 µM in the test on NCI-H226 lung; 1.43 µM in the test with CAKI-1 renal; 0.466 µM with BT-549 breast; 0.841 µM in the test on HOP-62 NSCLC; 1.14 µM in the test on SK-OV-3 ovarian; 0.342 µM in the test with COLO 205 colon. Moreover, the GI50 was 0.267 µM in the test on HOP-92 NSCLC, 2.15 µM in the test on HCT-15 colon and 0.615 µM with SF-268 CNS. Besides, the TGI in the test with NCI-H226 lung came to 1.92 µM; in the test with CAKI-1 renal it was 4.15 µM; in the test on BT-549 breast, 1.59 µM; in the test with HOP-62 NSCLC, 2.16 µM; with SK-OV-3 ovarian, 2.37 µM; with COLO 205 colon, 1.3 µM. In addition, the TGI came out at 1.53 µM with HOP-92 NSCLC, 6.76 µM in the test on HCT-15 colon and 2.23 µM in the test with SF-268 CNS.

In the case of `Oc1ccc(Br)cc1C=NC1CCCCC1`, the TGI in the test on CAKI-1 renal, with BT-549 breast, in the test with HOP-62 NSCLC, in the test with LOX IMVI melanoma, with SK-OV-3 ovarian and in the test with COLO 205 colon was > 100 µM each time. Further, the TGI in the test on HOP-92 NSCLC, with HCT-15 colon and in the test on SF-268 CNS was > 100 µM each time.

Regarding `COC(=O)[C@@H](C)C[C@H](Cc1ccc(F)cc1)NC(=O)c1csc([C@@H](C[C@H](C(C)C)N(C)C(=O)[C@@H](NC(=O)[C@H]2CCCCN2C)C2CC2)OC(C)=O)n1`, the GI50 is 1.26 µM in the test with NCI-H226 lung; 0.188 µM with BT-549 breast; 0.559 µM with HOP-62 NSCLC; 0.272 µM in the test with LOX IMVI melanoma; 5.39 µM in the test on SK-OV-3 ovarian; 0.184 µM in the test on COLO 205 colon. In addition, the values for the GI50 in the test on HOP-92 NSCLC, in the test with HCT-15 colon and in the test with SF-268 CNS were 0.917 µM, 0.828 µM and 1.16 µM, respectively. Moreover, the TGI in the test with NCI-H226 lung was > 13.9 µM; in the test with BT-549 breast, 3.72 µM; in the test with HOP-62 NSCLC, > 25 µM; with LOX IMVI melanoma, > 25 µM; in the test with SK-OV-3 ovarian, > 25 µM; in the test with COLO 205 colon it was 1.47 µM. The results for the TGI in the test with HOP-92 NSCLC, with HCT-15 colon and with SF-268 CNS were > 12.8 µM, > 25 µM and > 25 µM, respectively.

For the compound `COc1ccc2cc(C(=O)N3CCC([C@@H](C)C(=O)NCc4ccc5c(c4)OCO5)CC3)[nH]c2c1`, the GI50 was > 100 µM in the test on NCI-H226 lung; 43.7 µM in the test on BT-549 breast; 45.9 µM with HOP-62 NSCLC; 50.1 µM in the test with LOX IMVI melanoma; > 100 µM with SK-OV-3 ovarian; > 100 µM in the test on COLO 205 colon. For the same compound, the GI50 in the test on HOP-92 NSCLC is 23.4 µM; with HCT-15 colon it was > 100 µM; in the test on SF-268 CNS, 77.3 µM. The TGI with NCI-H226 lung, with BT-549 breast, in the test on HOP-62 NSCLC, in the test with LOX IMVI melanoma, with SK-OV-3 ovarian and in the test on COLO 205 colon was > 100 µM each time. Moreover, the TGI with HOP-92 NSCLC, in the test with HCT-15 colon and with SF-268 CNS was > 100 µM throughout.

Consider `Oc1c(CN2CCCCC2)ccc2cccnc12`, for which the GI50 in the test with NCI-H226 lung was 2.41 µM; in the test on CAKI-1 renal it was 0.52 µM; in the test on BT-549 breast, 10.4 µM; with HOP-62 NSCLC, 3.75 µM; in the test with LOX IMVI melanoma it was 3.6 µM; in the test with SK-OV-3 ovarian, 4.33 µM. Also, the figures for the GI50 with COLO 205 colon, with HCT-15 colon and in the test with SF-268 CNS were 3.64 µM, 0.728 µM and 6.07 µM, respectively. The TGI in the test on NCI-H226 lung is 16 µM; in the test with CAKI-1 renal it was 3.23 µM; in the test with BT-549 breast, > 100 µM; with HOP-62 NSCLC, 54.3 µM; in the test with LOX IMVI melanoma it was 17.3 µM; with SK-OV-3 ovarian, 25 µM. Also, the TGI was 15 µM in the test on COLO 205 colon, 82.9 µM in the test with HCT-15 colon and > 100 µM in the test with SF-268 CNS.

As for `COc1ccc(OC)c(-c2cc(-c3ccc(Cl)cc3)nn2-c2ccccc2)c1`, the GI50 is 33 µM in the test with NCI-H226 lung; 24.2 µM in the test with CAKI-1 renal; 28.8 µM in the test on BT-549 breast; 29.3 µM in the test on HOP-92 NSCLC; 34.2 µM with HCT-15 colon; 18.2 µM with SF-268 CNS. Also, the TGI with NCI-H226 lung was > 100 µM; with CAKI-1 renal, 66.9 µM; in the test on BT-549 breast it was 84.4 µM; with HOP-92 NSCLC, > 100 µM; in the test on HCT-15 colon, > 100 µM; in the test on SF-268 CNS, 57.8 µM.

Regarding `OCC#Cc1ccccc1C#Cc1ccc(C#Cc2ccccc2C#CCO)cc1`, the GI50 with NCI-H226 lung is 56.8 µM; in the test on CAKI-1 renal it was 68.3 µM; in the test on BT-549 breast, 0.68 µM; with HOP-62 NSCLC, 28.1 µM; with LOX IMVI melanoma it was 48.1 µM; with SK-OV-3 ovarian, 55.4 µM. The GI50 in the test on COLO 205 colon is > 100 µM; in the test on HCT-15 colon, > 100 µM; with SF-268 CNS it was 35.1 µM. In addition, the TGI is > 100 µM in the test with NCI-H226 lung; > 100 µM in the test on CAKI-1 renal; 32.2 µM in the test with BT-549 breast; 68.5 µM with HOP-62 NSCLC; > 100 µM in the test on LOX IMVI melanoma; > 100 µM in the test with SK-OV-3 ovarian. The TGI in the test on COLO 205 colon, with HCT-15 colon and with SF-268 CNS was > 100 µM throughout.
